Source: the NIST ThermoML archive (doi:10.1021/je800316b)

Conditions: Liquid

CCCCCCCCCCn1cc[n+](C)c1.O=S(=O)([N-]S(=O)(=O)C(F)(F)F)C(F)(F)F
mass density [kg/m3]
Conditions	100 kPa	2500 kPa	5000 kPa	7500 kPa	10000 kPa	15000 kPa	20000 kPa	25000 kPa	30000 kPa	35000 kPa
293.15 K	1282.4	1285.6	1287.4	1289.3	1291.1	1294.6	1298.1	1301.4	1304.7	1308
298.15 K	1278	1280.8	1282.7	1284.6	1286.4	1290	1293.5	1297	1300.3	1303.6
303.15 K	1273.6	1276.4	1278.3	1280.3	1282.1	1285.8	1289.4	1292.9	1296.3	1299.6
313.15 K	1265.3	1267.3	1269.3	1271.3	1273.2	1277	1280.7	1284.2	1287.7	1291.1
333.15 K	1245.5	1247.7	1249.8	1251.9	1254	1258	1261.9	1265.7	1269.4	1273
353.15 K	1228.6	1230.9	1233.2	1235.5	1237.6	1242	1246.2	1250.2	1254.1	1257.9
373.15 K	1209.6	1212.4	1214.8	1217.3	1219.6	1224.2	1228.6	1232.9	1237	1241.1
393.15 K	1191.8	1195.8	1198.3	1200.9	1203.4	1208.2	1212.8	1217.3	1221.7	1225.9

CCn1cc[n+](CC)c1.O=S(=O)([N-]S(=O)(=O)C(F)(F)F)C(F)(F)F [1,3-diethylimidazolium bis[(trifluoromethyl)sulfonyl]imide]
mass density [kg/m3]
Conditions	100 kPa	2500 kPa	5000 kPa	7500 kPa	10000 kPa	15000 kPa	20000 kPa	25000 kPa	30000 kPa	35000 kPa
293.15 K	1469.2	1471.1	1473.1	1475	1476.9	1480.8	1484.2	1487.9	1491.5	1495.2
298.15 K	1463.2	1465.5	1467.6	1469.5	1471.4	1475.3	1479	1482.5	1486.1	1489.5
303.15 K	1457.7	1460.1	1462.1	1463.9	1466.1	1469.8	1473.6	1477.1	1480.9	1484.3
313.15 K	1447.3	1449.6	1451.6	1453.7	1455.8	1459.7	1463.5	1467.2	1470.9	1474.6
333.15 K	1425.7	1428.2	1430.4	1432.6	1434.8	1439.1	1443.2	1447.2	1450.9	1454.8
353.15 K	1404.5	1407.5	1409.9	1412.2	1414.5	1419	1423.4	1427.5	1431.6	1435.6
373.15 K	1384.1	1386.9	1389.5	1391.9	1394.4	1399.1	1403.7	1408.1	1412.4	1416.7
393.15 K	1364.2	1367.2	1369.9	1372.5	1375.1	1380.2	1384.9	1389.6	1394.3	1398.6

CCOS(=O)(=O)[O-].CCn1cc[n+](C)c1 [1-ethyl-3-methylimidazolium ethyl sulfate]
mass density [kg/m3]
Conditions	100 kPa	2500 kPa	5000 kPa	7500 kPa	10000 kPa	15000 kPa	20000 kPa	25000 kPa	30000 kPa	35000 kPa
293.15 K	1246.9	1249	1250.2	1251.3	1252.3	1254.3	1256.5	1258.5	1260.5	1262.4
298.15 K	1244.3	1245.2	1246.3	1247.4	1248.4	1250.6	1252.7	1254.8	1256.6	1258.7
303.15 K	1240.8	1241.6	1242.7	1243.8	1244.9	1247	1249.1	1251.1	1253.2	1255.2
313.15 K	1233.1	1234	1235.1	1236.2	1237.3	1239.5	1241.6	1243.7	1245.8	1247.9
333.15 K	1218.3	1219.2	1220.4	1221.6	1222.7	1225	1227.2	1229.3	1231.5	1233.6
353.15 K	1204.2	1205.3	1206.6	1207.8	1209	1211.4	1213.8	1216.1	1218.4	1220.6
373.15 K	1190.1	1191.3	1192.6	1193.9	1195.2	1197.7	1200.2	1202.6	1204.9	1207.3
393.15 K	1176.6	1178	1179.3	1180.7	1182	1184.6	1187.2	1189.7	1192.2	1194.6

CCn1cc[n+](C)c1.COS(=O)(=O)[O-] [1-ethyl-3-methylimidazolium methylsulfate]
mass density [kg/m3]
Conditions	100 kPa	2500 kPa	5000 kPa	7500 kPa	10000 kPa	15000 kPa	20000 kPa	25000 kPa	30000 kPa	35000 kPa
293.15 K	1292.1	1293	1294	1295	1296	1298	1299.9	1301.8	1303.7	1305.6
298.15 K	1288	1289.1	1290.1	1291.1	1292.1	1294.1	1296.1	1298	1300	1301.9
303.15 K	1283.3	1284.3	1285.4	1286.4	1287.4	1289.5	1291.4	1293.4	1295.3	1297.3
313.15 K	1276.6	1277.8	1278.9	1279.9	1281	1283	1285.1	1287.1	1289.1	1291.1
333.15 K	1260.9	1262.3	1263.4	1264.5	1265.6	1267.8	1269.9	1272	1274	1276.1
353.15 K	1245.5	1247.5	1248.7	1249.9	1251.1	1253.4	1255.6	1257.8	1260	1262.2
373.15 K	1231.4	1232.8	1234	1235.2	1236.4	1238.8	1241.2	1243.5	1245.7	1248
393.15 K	1218.1	1219.2	1220.5	1221.8	1223.1	1225.5	1227.9	1230.3	1232.6	1234.9
